According to paper PMC7218270 (EBioMedicine, 2020):
In brackets after ≈: the same amount, converted by molar mass. Several values for one entry are separate records, joined by “and”; a condition that tells them apart may be missing. Equal entries are not always repeated.

Assays:
P. aeruginosa 103 = assay: MIC, planktonic cells; format: cell-based; settings: Pseudomonas aeruginosa, 103, 18 h
S. pneumoniae = assay: MIC, planktonic cells; format: cell-based; settings: Streptococcus pneumoniae, 18 h
E. coli ATCC25922 = assay: MIC, planktonic cells; format: cell-based; settings: Escherichia coli, ATCC25922, 18 h
P. aeruginosa ATCC27853 = assay: MIC, planktonic cells; format: cell-based; settings: Pseudomonas aeruginosa, ATCC27853, 18 h
[1] = system: Drug-susceptible P. aeruginosa; assay: Resistance study, serial passages; format: cell-based; settings: passages at 1/4 × MIC
Enterococcus faecalis = assay: MIC, planktonic cells; format: cell-based; settings: 18 h
P. aeruginosa CMCC10104 = assay: MIC, planktonic cells; format: cell-based; settings: Pseudomonas aeruginosa, CMCC10104, 18 h
E. coli A2 = assay: MIC, planktonic cells; format: cell-based; settings: Escherichia coli, A2, 18 h
Mlicrococcus scarlatinae = assay: MIC, planktonic cells; format: cell-based; settings: 18 h
P. aeruginosa 110 = assay: MIC, planktonic cells; format: cell-based; settings: Pseudomonas aeruginosa, 110, 18 h
[2] = system: fluconazole-resistant C. albicans; set-up: species or system G. mellonella; settings: in vivo
C. albicans 7248 = assay: microbe, parasite or virus in culture; format: cell-based; settings: Candida albicans, 7248, 72 h
C. albicans 006 = assay: microbe, parasite or virus in culture; format: cell-based; settings: Candida albicans, 006, 72 h
C. neoformans ATCC28957 = assay: microbe, parasite or virus in culture; format: cell-based; settings: Cryptococcus neoformans, ATCC28957, 72 h
C. neoformans 6120 = assay: microbe, parasite or virus in culture; format: cell-based; settings: Cryptococcus neoformans, 6120, 72 h
C. neoformans 4906 = assay: microbe, parasite or virus in culture; format: cell-based; settings: Cryptococcus neoformans, 4906, 72 h
[3] = system: Drug-susceptible C. albicans; format: cell-based
C. albicans ATCC10231 = assay: microbe, parasite or virus in culture; format: cell-based; settings: Candida albicans, ATCC10231, 72 h
C. neoformans 001 = assay: microbe, parasite or virus in culture; format: cell-based; settings: Cryptococcus neoformans, 001, 72 h

Molecule | MIC (P. aeruginosa 103) | MIC (S. pneumoniae) | MIC (E. coli ATCC25922) | MIC (P. aeruginosa ATCC27853) | MIC increase ([1]; at the 8th generation) | MIC increase ([1]; at the 20th generation) | MIC (Enterococcus faecalis) | MIC (P. aeruginosa CMCC10104) | MIC (E. coli A2) | MIC (Mlicrococcus scarlatinae) | MIC (P. aeruginosa 110) | MIC increase [3] | also measured
CC(C)(O/N=C(\C(=O)N[C@@H]1C(=O)N2C(C(=O)[O-])=C(C[n+]3ccccc3)CS[C@H]12)c1csc(N)n1)C(=O)O [Ceftazidime] | > 128 µg/mL | > 128 µg/mL | 1 µg/mL (≈ 1.83 µM) | 1 µg/mL (≈ 1.83 µM) | 4 fold | 16 fold | > 128 µg/mL | 0.5 µg/mL (≈ 0.915 µM) | 64 µg/mL (≈ 117 µM) | > 128 µg/mL | > 128 µg/mL |  | 
OC(Cn1cncn1)(Cn1cncn1)c1ccc(F)cc1F [Fluconazole] |  |  |  |  |  |  |  |  |  |  |  | 4 fold and 8 fold | survival rate of G. mellonella [2]: 40%; MIC (C. albicans 7248): > 128 µg/mL; MIC (C. albicans 006): 4 µg/mL (≈ 13.1 µM); MIC (C. neoformans ATCC28957): 2 µg/mL (≈ 6.53 µM); MIC (C. neoformans 6120): > 128 µg/mL; MIC (C. neoformans 4906): 128 µg/mL (≈ 418 µM); MIC (C. albicans ATCC10231): 4 µg/mL (≈ 13.1 µM); MIC (C. neoformans 001): 2 µg/mL (≈ 6.53 µM)
CC1(C)S[C@@H]2[C@H](NC(=O)COc3ccccc3)C(=O)N2[C@H]1C(=O)O [Penicillin V potassium] | > 128 µg/mL | > 128 µg/mL | 2 µg/mL | 2 µg/mL |  |  | > 128 µg/mL | 4 µg/mL | > 128 µg/mL | > 128 µg/mL | > 128 µg/mL |  | 
CC(=O)N1CCN(c2ccc(OCC3COC(Cn4ccnc4)(c4ccc(Cl)cc4Cl)O3)cc2)CC1 (stereo not drawn) [ketoconazole] |  |  |  |  |  |  |  |  |  |  |  | 4 fold | 
C[C@H]1COc2c(N3CCN(C)CC3)c(F)cc3c(=O)c(C(=O)O)cn1c23 [levofloxacin] |  |  |  |  | 4 fold | 8 fold |  |  |  |  |  |  | 
Polymyxin B |  |  |  |  | 16 fold |  |  |  |  |  |  |  | 
